# Results published in patent US11279727B2, “Anti-viral compounds and methods of use” (Metro International Biotech, LLC, priority 2020, dated 2022).
# Tested on: SARS-CoV-2, USA-WA1/2020
# Test: Antiviral assay: inhibition of SARS-CoV-2 cytopathic effect, neutral red
# Format: cell-based
# Conditions: Severe acute respiratory syndrome coronavirus 2; Vero 76 cells, CPE inhibition by 50%, neutral red; i) and ii) are separate determinations; read-out: Anti-viral Assay (EC50)
structure (smiles),measurement,value
N#C[C@@]1(c2ccc3c(N)ncnn23)O[C@H](CO)[C@@H](O)[C@H]1O [GS-441524],EC50,500 to 1100 nM
